Data as given in patent US20170291905A1, “ARGININE […] INHIBITORS AND USES THEREOF” (Epizyme, Inc., priority 2014, published 2017).

Biological target: T1, PRMT1 (Homo sapiens, UniProt Q99873)
T1 construct: host or cells: RKO cells
Assay: RKO methylation assay, In Cell Western (ICW) for mono-methyl arginine and DNA content
Format: cell-based
Conditions: RKO cells, 72 hours, mono-methyl arginine signal normalised to DRAQ5, percent activation
Source text: RKO Methylation Assay RKO adherent cells were purchased from ATCC (American Type Culture Collection), Manassas, Va., USA. DMEM/Glutamax medium, penicillin-streptomycin, heat inactivated fetal bovine serum, 0.05% trypsin and D-PBS were purchased from Life Technologies, Grand Island, N.Y., USA. Odyssey blocking buffer, 800CW goat anti-rabbit IgG (H+L) antibody, and Licor Odyssey infrared scanner were purchased from Licor Biosciences, Lincoln, Nebr., USA. Mono-methyl arginine antibody was purchased from Cell Signaling Technology, Danvers, Mass., USA. Methanol was purchased from VWR, Franklin, Mass., USA. 10% Tween 20 was purchased from KPL, Inc., Gaithersburg, Md., USA. DRAQ5 was purchased from Biostatus Limited, Leicestershire, UK. RKO adherent cells were maintained in growth medium (DMEM/Glutamax medium supplemented with 10% v/v heat inactivated fetal bovine serum and 100 units/mL penicillin-streptomycin) and cultured at 37° C. under 5% CO2. Cell Treatment, in Cell Western (ICW) for Detection of Mono-Methyl Arginine and DNA Content. RKO cells were seeded in assay medium at a concentration of 20,000 cells per mL to a poly-D-lysine coated 384 well culture plate (BD Biosciences 356697) with 50 μL per well. Compound (100 nL) from a 96-well source plate was added directly to 384 well cell plate. Plates were incubated at 37° C., 5% CO2 for 72 hours. After three days of incubation, plates were brought to room temperature outside of the incubator for ten minutes and blotted on paper towels to remove cell media. 50 μL of ice cold 100% methanol was added directly to each well and incubated for 30 min at room temperature. After 30 min, plates were transferred to a Biotek EL406 plate washer and washed 2 times with 100 μL per well of wash buffer (1×PBS). Next 60 μL per well of Odyssey blocking buffer (Odyssey Buffer with 0.1% Tween 20 (v/v)) were added to each plate and incubated 1 hour at room temperature. Blocking buffer was removed and 20 μL per well of primary antibody was added (mono-methyl arginine diluted 1:200 in Odyssey buffer with 0.1% Tween 20 (v/v)) and plates were incubated overnight (16 hours) at 4° C. Plates were washed 5 times with 100 μL per well of wash buffer. Next 20 μL per well of secondary antibody was added (1:200 800CW goat anti-rabbit IgG (H+L) antibody, 1:1000 DRAQ5 (Biostatus limited) in Odyssey buffer with 0.1% Tween 20 (v/v)) and incubated for 1 hour at room temperature. The plates were washed 5 times with 100 μL per well wash buffer then 2 times with 100 μL per well of water. Plates were allowed to dry at room temperature then imaged on the Licor Odyssey machine which measures integrated intensity at 700 nm and 800 nm wavelengths. Both 700 and 800 channels were scanned. […] Each plate included fourteen control wells of DMSO only treatment (minimum activation) as well as fourteen control wells for maximum activation treated with 20 μM of a reference compound. The average of the ratio values for each control type was calculated and used to determine the percent activation for each test well in the plate. Reference compound was serially diluted three-fold in DMSO for a total of nine test concentrations, beginning at 20 μM. Percent activation was determined and EC30 curves were generated using triplicate wells per concentration of compound.

T1 sequence (Q99873 whole entry): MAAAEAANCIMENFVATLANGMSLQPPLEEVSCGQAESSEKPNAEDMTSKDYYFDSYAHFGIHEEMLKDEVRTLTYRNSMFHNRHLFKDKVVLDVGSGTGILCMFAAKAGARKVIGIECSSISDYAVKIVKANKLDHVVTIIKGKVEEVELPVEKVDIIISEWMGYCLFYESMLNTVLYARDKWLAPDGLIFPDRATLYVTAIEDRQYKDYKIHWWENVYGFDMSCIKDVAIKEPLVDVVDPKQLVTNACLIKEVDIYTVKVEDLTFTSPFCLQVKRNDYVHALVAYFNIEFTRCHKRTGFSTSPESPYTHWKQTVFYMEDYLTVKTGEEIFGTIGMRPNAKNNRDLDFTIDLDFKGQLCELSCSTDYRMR

In order of falling “PRMT1 RGG ICW EC30” value:
1. CCOCCOCC1(COCCOCC)CCC(c2n[nH]cc2CN(C)CCNC)CC1 [compound 39, N1-((3-(4,4-bis((2-ethoxyethoxy)methyl)cyclohexyl)-1H-pyrazol-4-yl)methyl)-N1,N2-dimethylethane-1,2-diamine]  1388 nM
2. CN(C)CCN(C)Cc1c[nH]nc1[C@H]1CC[C@]2(CC1)CC(C)(C)CO2 [compound 43, N1-((3-((5r,8r)-3,3-dimethyl-1-oxaspiro[4.5]decan-8-yl)-1H-pyrazol-4-yl)methyl)-N1,N2,N2-trimethylethane-1,2-diamine]  622.8 nM
3. CNCCN(C)Cc1c[nH]nc1C1CCC(COCCC2CCOCC2)(COCCC2CCOCC2)CC1 [compound 40]  458.5 nM
4. CCC1(CC)C[C@]2(CC[C@H](c3n[nH]cc3CN(C)CCNC)CC2)NC1=O [compound 47, (5s,8s)-3,3-diethyl-8-(4-((methyl(2-(methylamino)ethyl)amino)methyl)-1H-pyrazol-3-yl)-1-azaspiro[4.5]decan-2-one]  367.1 nM
5. CNCCN(C)Cc1c[nH]nc1C1=CCC2(CC1)CC(C)(C)CO2 (centres unmarked) [compound 46, N1-((3-(3,3-dimethyl-1-oxaspiro[4.5]dec-7-en-8-yl)-1H-pyrazol-4-yl)methyl)-N1,N2-dimethylethane-1,2-diamine]  185.1 nM
6. CNCCN(C)Cc1ccnn1[C@H]1CC[C@@]2(CC1)CC(C)(C)CO2 [compound 49, N1-((1-((5s,8s)-3,3-dimethyl-1-oxaspiro[4.5]decan-8-yl)-1H-pyrazol-5-yl)methyl)-N1,N2-dimethylethane-1,2-diamine]  111.3 nM
7. CC[C@H]1CC[C@@H](c2n[nH]cc2CN(C)CCNC)CC1 [compound 1]  83.01 nM
8. CNCCN(C)Cc1c[nH]nc1C1CCC(COCC2CC2)(COCC2CC2)CC1 [compound 41, N1-((3-(4,4-bis((cyclopropylmethoxy)methyl)cyclohexyl)-1H-pyrazol-4-yl)methyl)-N1,N2-dimethylethane-1,2-diamine]  67.48 nM
9. CN(C)CCN(C)Cc1c[nH]nc1[C@H]1CC[C@@]2(CC1)CC(C)(C)CO2 [compound 42, N1-((3-((5S,8S)-3,3-dimethyl-1-oxaspiro[4.5]decan-8-yl)-1H-pyrazol-4-yl)methyl)-N1,N2,N2-trimethylethane-1,2-diamine]  51.41 nM

With `CNCCN(C)Cc1c[nH]nc1C1CCC(CO)(CO)CC1` [compound 44, (4-(4-((methyl(2-(methylamino)ethyl)amino)methyl)-1H-pyrazol-3-yl)cyclohexane-1,1-diyl)dimethanol] the “PRMT1 RGG ICW EC30” value was greater than 5000 nM.
With `CCC1(CC)C[C@]2(CC[C@@H](c3n[nH]cc3CN(C)CCNC)CC2)NC1=O` [compound 48, (5r,8r)-3,3-diethyl-8-(4-((methyl(2-(methylamino)ethyl)amino)methyl)-1H-pyrazol-3-yl)-1-azaspiro[4.5]decan-2-one] the “PRMT1 RGG ICW EC30” value was greater than 5000 nM.
